These results are taken from PubChem BioAssay (NCI).

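Protocol summary: plate cells (96-well), add compound at 5 concentrations, incubate 48 h, interpolate endpoints linearly. Abbreviation: GI50, concentration required for 50% inhibition of growth. TGI: total growth inhibition.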

What all share (assay): inhibition of tumour cell growth, NCI panel, 48 h
The subject of assay [1] is K-562 leukemia.
Assay [2] has as its system TK-10 renal.
Assay [3] concerns HT29 colon.
Assay [4] has as its system RXF 393 renal.
In assay [5] the test system is U251 CNS.
Assay [6] relates to SK-MEL-28 melanoma.
For assay [7], the system named is OVCAR-3 ovarian.
The subject of assay [8] is NCI-H522 lung.
The test system of assay [9] is A498 renal.
Assay [10] has as its system HOP-92 NSCLC.

For `CC(C)(C)c1cc(OCc2nn3c(Cc4ccccc4)nnc3s2)c(Cl)cc1OCc1nn2c(Cc3ccccc3)nnc2s1`, the TGI in assay [1], in [2], in assay [3], in assay [4], in assay [5] and in assay [6] was over 100 µM each time. Besides, the TGI is 60.4 µM in [7], over 100 µM in assay [8], over 100 µM in assay [9] and 52.9 µM in assay [10].

Regarding `O=C(O)c1ccc(C2=Cc3cc(Cl)ccc3OC2)cc1`, the TGI in [1], in assay [2], in [3], in assay [4], in assay [5] and in assay [6] was over 100 µM in each case. In addition, the TGI in assay [7], in assay [8], in [9] and in [10] was over 100 µM each time.

Regarding `COC(=O)c1c(C#N)c(N)nc2c1CCC2`, the TGI in assay [1], in assay [2], in assay [3], in [4], in assay [5] and in [6] was over 100 µM throughout. Moreover, the TGI in assay [8], in [9] and in [10] was over 100 µM each time.

Turning to `CCOC(=O)Nc1ccc2c(c1)c(CCCCCCc1nc3ccccc3c3ccc(NC(=O)OCC)cc13)nc1ccccc12`, the TGI in assay [1] is over 100 µM; in [2] it was 84.8 µM; in assay [3], over 100 µM; in [4], over 100 µM; in [6], over 100 µM; in assay [7], 58.7 µM. The TGI in assay [8] worked out at 60.5 µM; in [9], 67.3 µM; in [10] it was 63 µM.

On to `CC(=O)Oc1c(-c2ccccc2)sc2ccccc12`, for which the TGI came out at 36.2 µM in assay [1]; 65.1 µM in [2]; 35.3 µM in assay [3]; 28.1 µM in [4]; 39.8 µM in assay [5]; 53.1 µM in assay [6]. Besides, the results for the TGI in [8], in assay [9] and in assay [10] were 51.3 µM, 34.5 µM and 49.8 µM, respectively.

On to `C=C1C(=O)O[C@@H]2[C@H](O)[C@@H](C)[C@@H]3C=CC(=O)[C@@]3(C)[C@@H](OC(=O)/C(C)=C/C)[C@H]12`, for which the TGI in assay [1] came out at 3.48 µM; in assay [3] it was 4.15 µM; in assay [4], 1.14 µM; in [5], 5.26 µM; in assay [6], 1.34 µM; in assay [7], 1.69 µM. Besides, the TGI amounted to 0.258 µM in [8], 6.88 µM in assay [9] and 1.78 µM in [10].

In the case of `COc1c(-c2nc3nc(N4CCN(C)CC4)ccc3[nH]2)cc(OC)c2c1nc(COC(C)=O)n2C`, the TGI was over 100 µM in assay [1]; 0.0263 µM in [2]; over 100 µM in [3]; over 100 µM in [4]; over 100 µM in [5]; over 100 µM in assay [7]. Further, the TGI in assay [8], in assay [9] and in assay [10] was over 100 µM each time.

Consider `CCOC(=O)C(NC(=O)c1ccccc1)(N1CCN(c2cc3c(cc2F)c(=O)c(C(=O)O)cn3CC)CC1)C(F)(F)F` (stereo not drawn), for which the TGI in [1] is over 100 µM; in [2], 94.8 µM; in [3], over 100 µM; in [4] it was over 100 µM; in [5] it was over 100 µM; in assay [7], over 100 µM. The TGI in [8] came out at 32.4 µM; in assay [9], 65.2 µM; in [10], 84.4 µM.

Consider `CC(C)=CCc1[nH]c2ccccc2c1C1=C(O)C(=O)C(c2c(CC=C(C)C)[nH]c3ccccc23)=C(O)C1=O`, for which the TGI in assay [1] was found to be 6.31 µM; in assay [3], 6.34 µM; in assay [4] it was 8.17 µM; in assay [5], 6.52 µM; in assay [6], 2.9 µM; in [7] it was 3.92 µM. Besides, the figures for the TGI in assay [8], in assay [9] and in assay [10] were 5.58 µM, 2.72 µM and 4.04 µM, respectively.

Turning to `CCOC(=O)c1nc2ccc(C(F)(F)F)cc2nc1Nc1ccc(Cl)c(Cl)c1`, the TGI in assay [1], in [2], in assay [3], in assay [4], in assay [6] and in assay [7] was over 100 µM throughout. Moreover, the TGI in [8], in assay [9] and in assay [10] was over 100 µM in each case.

With `CCN(CC)CCN1C(=O)c2c(c3c4ccccc4[nH]c3c3ccc4ccccc4c23)C1=O`, the GI50 in assay [1] is 1.82 µM; in assay [2], 1.77 µM; in [4] it was 1.42 µM; in [5], 1.53 µM; in assay [6] it was 1.74 µM; in [7] it was 1.65 µM. The values for the GI50 in assay [8], in [9] and in assay [10] were 1.46 µM, 1.32 µM and 1.42 µM, respectively. The TGI was 5.32 µM in [1]; 3.34 µM in [2]; 2.83 µM in assay [4]; 3.06 µM in [5]; 3.18 µM in assay [6]; 3.03 µM in [7]. Also, the TGI in [8] was found to be 3.54 µM; in [9], 2.61 µM; in [10] it was 2.95 µM.

For `CSc1ccn(C2CC(F)C(CO)O2)c(=O)n1` (stereo not drawn), the TGI in [1], in [2], in assay [3], in [4], in [5] and in [7] was over 100 µM throughout. The TGI in [8], in assay [9] and in assay [10] was over 100 µM throughout.

Take `Nc1ncn2c(n1)nc1ccccc12`: the TGI in assay [1], in [2], in [3], in assay [4], in [5] and in assay [6] was over 100 µM in each case. Moreover, the TGI in assay [8], in assay [9] and in assay [10] was over 100 µM throughout.
